For data set [1], the system named is claudin-5. Nature of the data set: Western blot of claudin-5 expression in hCMEC/D3 cells. The data set is classed as cell-based, Homo sapiens. The settings on record: for GDNF-induced claudin-5 expression: 200 pg/ml GDNF, 3 μM SPP-86, 5 μM PP2, 3 μM LY294002, 2 μM U0126, 5 μM SP600125, 2 μM SB203580; for GDNF-induced claudin-5 expression / US-CM-induced claudin-5 expression: anti-GDNF antibody 0.25, 0.5, 1.0 μg/ml; for US-CM-induced claudin-5 expression: 3 μM SPP-86, 5 μM PP2, 3 μM LY294002, 2 μM U0126. How it is done:
(§1) Whole-cell and tissue lysates, nucleoprotein, and cytoplasmic protein were prepared using RIPA Lysis Buffer (Beyotime, Shanghai, China) as the described method ([Wu et al., 2021]). Proteins were separated through sodium dodecyl sulfate–polyacrylamide gel electrophoresis and transferred onto nitrocellulose or polyvinylidene difluoride membranes. The membranes were blocked with 5% skim milk and incubated with corresponding primary antibodies at 4°C overnight. After being washed with Tris-buffered saline Tween buffer, the membranes were incubated with secondary antibodies (Cell Signaling Technology, MA, USA) at 1:3000 dilution: Anti-mouse IgG, HRP-linked Antibody (#7076), Anti-rabbit IgG, HRP-linked Antibody (#7074). Protein levels were visualized using a highly sensitive ECL western blotting substrate and a gel imaging system (Tanon Science & Technology, Shanghai, China).
(§2) CM of U251 cells (U-CM), SH-SY5Y cells (S-CM), or co-culture of U251 and SH-SY5Y cells (US-CM) was prepared. U251 cells were seeded at the top of the insert membrane and suspended on 6-well plates seeded with differentiated SH-SY5Y cells to co-culture U251 cells with SH-SY5Y cells. The medium was collected every 24 hr. The CMs were subsequently used for hCMEC/D3 cell culture after filtrating with 0.2 μm filters for 144 hr. The levels of GDNF, bFGF, IGF-1, and TGF-β in CMs were measured using corresponding ELISA kits according to the manufacturers’ instructions.
(§3) Exogenous and endogenous GDNF in the medium was neutralized with anti-GDNF antibody (#AF-212-NA, R&D system, Minneapolis, MN, USA). 0.25, 0.5, and 1.0 μg/ml anti-GDNF antibody was added into the US-CM or medium containing 200 pg/ml GDNF, and then the medium was preincubated at 4°C for 1 hr. The hCMEC/D3 cells were incubated with 200 pg/ml GDNF or US-CM containing anti-GDNF antibody or not for 6 days, and then cell lysate was collected for western blot. The medium was replaced every 24 hr.
(§4) Here, hCMEC/D3 cells were plated in the plates or culture dishes at 6 × 10^4 cells/cm^2 and transfected with 10 nM of negative control or human FOXO1, ETS1, and CDH5 siRNA (Tsingke Biotechnology, Beijing, China) for 12 hr using Lipofectamine 3000 (Invitrogen, Carlsbad, CA, USA) reagent according to the manufacturer’s instructions. Cells were then incubated with a medium containing GDNF for 72 hr.
(§5) The plasmids encoding FOXO1 (EX-Z7404-M02) were constructed by GeneCopoeia (Rockville, MD, USA). The hCMEC/D3 cells were plated in plates or dishes at 6 × 10^4 cells/cm^2. They were subsequently transfected with 1 µg of negative control or plasmids encoding FOXO1 6 hr using Lipofectamine 3000 reagent according to the manufacturer’s instructions. Transfected cells were then incubated with the medium containing GDNF for 72 hr.
On the technique in general: In western blotting, separated proteins are transferred to a membrane and probed.

Data set [2] relates to VE-cadherin. The data set can be described thus: Western blot of VE-cadherin expression in hCMEC/D3 cells. Format: cell-based, Homo sapiens. The settings on record: for GDNF-induced VE-cadherin expression / US-CM-induced VE-cadherin expression: hCMEC/D3 cells, anti-GDNF antibody 0.25, 0.5, 1.0 μg/ml; for GDNF-induced VE-cadherin expression: 200 pg/ml GDNF, 3 μM SPP-86, 5 μM PP2, 3 μM LY294002, 2 μM U0126, 5 μM SP600125, 2 μM SB203580; for US-CM-induced VE-cadherin expression: 3 μM SPP-86, 5 μM PP2, 3 μM LY294002, 2 μM U0126. As to the method: as §1, §2, §3, §4

Data set [3] concerns p-ERK/ERK. The data set can be described thus: Western blot of p-ERK/ERK in hCMEC/D3 cells. The data set is classed as cell-based, Homo sapiens. The settings on record: hCMEC/D3 cells, US-CM; 2 μM U0126 or anti-GDNF antibody. As to the method:
as §1, §3

In data set [4] the test system is ETS1. Nature of the data set: Western blot of total and nuclear ETS1 in hCMEC/D3 cells. The data set is classed as cell-based, Homo sapiens. The settings on record: hCMEC/D3 cells, 200 pg/ml GDNF; LY294002 or U0126. How it is done:
as §1, §4

The test system of data set [5] is hCMEC/D3 mono-culture BBB model. The settings on record: human; for PS: 30 min.
In data set [6] the test system is triple co-culture BBB model (hCMEC/D3, U251 and SH-SY5Y cells). The settings on record: human; for PS: 30 min.
Data set [7] can be described thus: in vitro. The settings on record: human.
A short description of data set [8]: in vitro. The settings on record: human. This is another data set of the same source.
The conditions of data set [9]: unbound fraction in brain, cited from earlier work.
The conditions of data set [10]: in situ brain perfusion in rodents, published permeability multiplied by VSA 150 cm^2/g, cited from earlier work.
For data set [11], the system named is p-AKT/AKT. The data set can be described thus: Western blot of p-AKT/AKT in hCMEC/D3 cells. The settings on record: hCMEC/D3 cells, US-CM; 3 μM LY294002 or anti-GDNF antibody. The data set is classed as cell-based, Homo sapiens. How it is done:
as §1, §3

Data set [12] deals with FOXO1. Nature of the data set: Western blot of FOXO1 (p-FOXO1/FOXO1, total, cytoplasmic, nuclear) in hCMEC/D3 cells. Format: cell-based, Homo sapiens. The settings on record: hCMEC/D3 cells; LY294002 or U0126. How it is done: as §1, §4, §5
The test system of data set [13] is hCMEC/D3 cells. The data set can be described thus: EdU incorporation assay. Format: cell-based, Homo sapiens. The settings on record: for EdU incorporation, EdU + fraction / EdU incorporation, EdU − fraction: 6 days. How it is done: The cells were incubated with medium containing 10 μM Edu for 2 hr. […] The EdU incorporation assay was measured using the BeyoClick EdU Cell Proliferation Kit (Beyotime Biotechnology, Shanghai, China) according to the manufacturer’s instructions. The samples were determined on the FACSCelesta flow cytometer (Becton, Dickins on and Company, USA), and data were analyzed by Flowjo 10.4 software.

Setting [14] is: hCMEC/D3 cells incubated with conditioned medium or neurotrophic factor vs normal medium.

Read-outs that look alike come from different tables or passages of the source. Marks after values point to notes of the source that are not given here.

The text below walks through data of publication PMC11524583, “Neurons enhance blood–brain barrier function via upregulating claudin-5 and VE-cadherin expression due to glial cell line-derived neurotrophic factor secretion” (eLife, 2024).

Regarding `N#CC(=C(/N)Sc1ccccc1N)/C(C#N)=C(/N)Sc1ccccc1N` [U0126, reference compound], in data set [1] (hCMEC/D3 cells), the “GDNF-induced claudin-5 expression” value was “significantly suppressed” and the “US-CM-induced claudin-5 expression” value is “markedly reversed”. Also, in data set [2], the “GDNF-induced VE-cadherin expression” value is recorded as “significantly suppressed” and the “US-CM-induced VE-cadherin expression” value is “markedly reversed”. The “US-CM-induced p-ERK” value in [3] was “markedly reversed”. For the same compound, in data set [4], the “GDNF-induced nuclear ETS1 expression” value was “markedly attenuated” and the “GDNF-induced total ETS1 expression” value is given as “markedly attenuated”.

Usually Papp A→B stands for the apparent permeability from the apical to the basolateral side of a cell layer. Higher therefore signals fast passage. `CN(C)CCC=C1c2ccccc2CCc2ccccc21` [Amitriptyline]: in data set [5], the “PSPre, Mono” value is recorded as 13,716.00 μl/min/g. Besides, the PS in data set [5] stood at 13716.00 µL/min/g; in [6] it was 13149.00 µL/min/g. The “PSPre, Triple” value in data set [6] is given as 13,149.00 μl/min/g. Also, the Papp A→B at 30 min in data set [7] (Papp (individual replicate)) was determined as 16.6 ×10⁻⁶ cm/s; in data set [7] (Papp Mean), 15.2 ×10⁻⁶ cm/s; in [7] (Papp, Mono), 15.2 ± 0.64 ×10⁻⁶ cm/s; in data set [8] (Papp (individual replicate)) it was 14 ×10⁻⁶ cm/s; in [8] (Papp Mean) it was 14.6 ×10⁻⁶ cm/s; in [8] (Papp, Triple), 14.6 ± 0.27 ×10⁻⁶ cm/s. The “fu, brain” value in data set [9] (ref Fridén et al., 2011) is 0.01^‡; in data set [9] (ref Sánchez-Dengra et al., 2021), 0.002; in data set [9] (ref Weber et al., 2013), 0.0071. In addition, the PSObs in data set [10] (ref Avdeef and Sun, 2011) is given as 4608.00^*** μl/min/g.

Regarding `O=c1cc(N2CCOCC2)oc2c(-c3ccccc3)cccc12` [LY294002, reference compound], in [1] (hCMEC/D3 cells), the “GDNF-induced claudin-5 expression” value was “significantly suppressed” and the “US-CM-induced claudin-5 expression” value is “markedly reversed”. Besides, the “upregulation of claudin-5 expression induced by FOXO1 siRNA and GDNF” value in [1] (hCMEC/D3 cells, LY294002) was “reversed”. Besides, in data set [2], the “GDNF-induced VE-cadherin expression” value is on record as “significantly suppressed” and the “US-CM-induced VE-cadherin expression” value is on record as “markedly reversed”. Further, the “US-CM-induced p-AKT” value in data set [11] was “markedly reversed”. Further, the “GDNF-induced alterations in total p-FOXO1, cytoplasmic p-FOXO1, cytoplasmic FOXO1, and nuclear FOXO1” value in data set [12] is on record as “significantly reversed”. Also, in data set [4], the “GDNF-induced nuclear ETS1 expression” value was “markedly attenuated” and the “GDNF-induced total ETS1 expression” value is recorded as “markedly attenuated”.

With `CN1CCN2c3ncccc3Cc3ccccc3C2C1` (stereo not shown) [Mirtazapine], in data set [5], the “PSPre, Mono” value worked out at 2637.00 µL/min/g. Moreover, the PS in [5] came to 2637.00 µL/min/g; in data set [6], 2009.25 µL/min/g. Also, the apical-to-basolateral permeability (Papp A→B) at 30 min in [7] (Papp, Mono) came out at 23.4 ± 0.44 ×10⁻⁶ cm/s; in [8] (Papp, Triple), 17.9 ± 0.21 ×10⁻⁶ cm/s. Moreover, the “fu, brain” value in [9] (ref Summerfield et al., 2007) was 0.08^†. Also, in data set [10] (ref Summerfield et al., 2007), the PSObs was 1912.50^† μl/min/g.

For the compound “bFGF: basic fibroblast growth factor, recombinant protein”, in [1] (setting [14]), the claudin-5 expression result is reported as “without affecting”. In [2] (setting [14]), the VE-cadherin expression result is “without affecting”. Also, the “EdU incorporation, EdU + fraction” value in [13] (bFGF 6 ng/mL) is listed as 21.1; in data set [13] (bFGF 20 ng/mL), 28.3; in data set [13] (bFGF 60 ng/mL), 31.0. Further, the figures for the “EdU incorporation, EdU − fraction” value in data set [13] (bFGF 6 ng/mL), in data set [13] (bFGF 20 ng/mL) and in data set [13] (bFGF 60 ng/mL) were 78.9, 71.7 and 69.0, respectively. Besides, the cell proliferation result in data set [13] (bFGF (6, 20, and 60 ng/ml) for 6 days, EdU incorporation and cell viability) is “increased cell proliferation”.
